{
  "source": "ChEMBL document CHEMBL4334526",
  "about": "“Synthesis of Peptoid-Based Class I-Selective Histone Deacetylase Inhibitors with Chemosensitizing Properties” (J Med Chem, 2019)",
  "key": {"Homo sapiens": {"species": "Homo sapiens", "experiment": "Induction of apoptosis in human Cal27CisR cells assessed as accumulation at sub-G1 phase at 5 uM after 48 hrs by propidium iodide staining based flow cytometry", "assay_type": "functional, cell-based"}, "[1]": {"biological_target": "T1, Class 1 histone deacetylase (Homo sapiens, UniProt Q13547+O15379+Q92769+Q9BY41)", "T1 sequence (O15379 whole entry, looked up)": "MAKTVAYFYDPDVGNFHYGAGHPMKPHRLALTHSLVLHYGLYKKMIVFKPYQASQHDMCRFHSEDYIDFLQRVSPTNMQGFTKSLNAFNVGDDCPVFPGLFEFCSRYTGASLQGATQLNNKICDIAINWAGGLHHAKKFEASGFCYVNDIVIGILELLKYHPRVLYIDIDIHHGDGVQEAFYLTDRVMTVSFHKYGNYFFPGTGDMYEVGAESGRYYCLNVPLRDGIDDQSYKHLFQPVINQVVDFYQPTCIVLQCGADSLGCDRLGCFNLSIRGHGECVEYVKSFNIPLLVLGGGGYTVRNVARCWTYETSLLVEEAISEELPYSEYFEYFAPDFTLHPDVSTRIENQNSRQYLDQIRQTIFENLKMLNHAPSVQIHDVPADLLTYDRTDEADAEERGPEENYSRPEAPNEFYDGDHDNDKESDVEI", "T1 sequence (Q13547 whole entry, looked up)": "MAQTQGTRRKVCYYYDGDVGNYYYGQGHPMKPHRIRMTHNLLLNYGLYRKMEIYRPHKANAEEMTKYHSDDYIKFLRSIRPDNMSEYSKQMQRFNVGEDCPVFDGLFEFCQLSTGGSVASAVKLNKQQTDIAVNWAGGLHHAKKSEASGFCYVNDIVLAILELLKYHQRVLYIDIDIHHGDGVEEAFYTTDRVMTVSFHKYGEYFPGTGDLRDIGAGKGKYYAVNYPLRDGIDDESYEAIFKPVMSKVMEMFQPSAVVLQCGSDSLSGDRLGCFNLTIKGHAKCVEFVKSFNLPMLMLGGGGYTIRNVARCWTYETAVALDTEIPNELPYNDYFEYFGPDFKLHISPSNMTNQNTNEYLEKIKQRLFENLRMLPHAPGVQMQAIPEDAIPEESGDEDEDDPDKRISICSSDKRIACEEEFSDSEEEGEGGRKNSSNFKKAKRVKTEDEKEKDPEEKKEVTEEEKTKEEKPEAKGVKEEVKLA", "T1 sequence (Q92769 whole entry, looked up)": "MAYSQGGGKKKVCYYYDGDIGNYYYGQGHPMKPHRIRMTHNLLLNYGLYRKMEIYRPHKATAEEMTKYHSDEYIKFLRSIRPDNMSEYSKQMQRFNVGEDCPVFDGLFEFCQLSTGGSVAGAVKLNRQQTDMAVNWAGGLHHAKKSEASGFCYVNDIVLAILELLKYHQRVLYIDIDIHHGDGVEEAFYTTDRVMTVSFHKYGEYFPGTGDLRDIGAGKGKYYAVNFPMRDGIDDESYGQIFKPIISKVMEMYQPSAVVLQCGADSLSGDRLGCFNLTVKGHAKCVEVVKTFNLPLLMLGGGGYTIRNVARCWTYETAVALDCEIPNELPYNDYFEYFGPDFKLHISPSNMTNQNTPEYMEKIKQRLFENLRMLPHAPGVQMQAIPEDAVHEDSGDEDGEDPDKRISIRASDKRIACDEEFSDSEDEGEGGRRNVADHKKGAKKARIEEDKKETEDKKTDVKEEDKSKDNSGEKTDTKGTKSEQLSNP", "T1 sequence (Q9BY41 whole entry, looked up)": "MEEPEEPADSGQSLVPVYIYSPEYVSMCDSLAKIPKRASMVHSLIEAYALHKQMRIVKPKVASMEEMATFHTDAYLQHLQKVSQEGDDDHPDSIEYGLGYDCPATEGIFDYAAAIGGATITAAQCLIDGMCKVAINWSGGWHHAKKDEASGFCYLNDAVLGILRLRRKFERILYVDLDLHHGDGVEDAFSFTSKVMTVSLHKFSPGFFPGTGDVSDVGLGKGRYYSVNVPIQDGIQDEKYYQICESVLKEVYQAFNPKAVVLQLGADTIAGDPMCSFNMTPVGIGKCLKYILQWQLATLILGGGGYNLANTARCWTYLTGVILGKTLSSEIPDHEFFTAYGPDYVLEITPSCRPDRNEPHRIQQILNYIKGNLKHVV", "experiment": "Inhibition of class 1 HDAC in human CAL27 cells assessed as potentiation of cisplatin-induced cytotoxicity by measuring fold reduction in cisplatin IC50 at 5 uM preincubated for 48 hrs followed by cisplatin addition and measured after 72 hrs by MTT assay relative to cisplatin IC50", "assay_type": "cell-based", "details": "CAL-27"}, "[2]": {"biological_target": "T1, Class 1 histone deacetylase", "experiment": "Inhibition of class 1 HDAC in human CAL27 cells assessed as potentiation of cisplatin-induced cytotoxicity by measuring combination index at 5 uM in presence of […] cisplatin by MTT assay based Chou-Talalay analysis", "assay_type": "cell-based", "details": "CAL-27"}, "[3]": {"biological_target": "T1, Class 1 histone deacetylase", "experiment": "(§1) Inhibition of class 1 HDAC in human Cal27CisR cells assessed as potentiation of cisplatin-induced apoptosis assessed as increase in caspase-3/7 activation at 5 uM preincubated for 48 hrs followed by cisplatin addition and measured after 24 hrs in presence of pan caspase inhibitor QVD by CellEvent caspase 3/7 green detection reagent/Hoechst 33342 staining based imaging analysis", "assay_type": "cell-based"}, "[4]": {"biological_target": "T2, Protein deacetylase HDAC6 (Homo sapiens) (UniProt Q9UBN7)", "T2 sequence (whole entry)": "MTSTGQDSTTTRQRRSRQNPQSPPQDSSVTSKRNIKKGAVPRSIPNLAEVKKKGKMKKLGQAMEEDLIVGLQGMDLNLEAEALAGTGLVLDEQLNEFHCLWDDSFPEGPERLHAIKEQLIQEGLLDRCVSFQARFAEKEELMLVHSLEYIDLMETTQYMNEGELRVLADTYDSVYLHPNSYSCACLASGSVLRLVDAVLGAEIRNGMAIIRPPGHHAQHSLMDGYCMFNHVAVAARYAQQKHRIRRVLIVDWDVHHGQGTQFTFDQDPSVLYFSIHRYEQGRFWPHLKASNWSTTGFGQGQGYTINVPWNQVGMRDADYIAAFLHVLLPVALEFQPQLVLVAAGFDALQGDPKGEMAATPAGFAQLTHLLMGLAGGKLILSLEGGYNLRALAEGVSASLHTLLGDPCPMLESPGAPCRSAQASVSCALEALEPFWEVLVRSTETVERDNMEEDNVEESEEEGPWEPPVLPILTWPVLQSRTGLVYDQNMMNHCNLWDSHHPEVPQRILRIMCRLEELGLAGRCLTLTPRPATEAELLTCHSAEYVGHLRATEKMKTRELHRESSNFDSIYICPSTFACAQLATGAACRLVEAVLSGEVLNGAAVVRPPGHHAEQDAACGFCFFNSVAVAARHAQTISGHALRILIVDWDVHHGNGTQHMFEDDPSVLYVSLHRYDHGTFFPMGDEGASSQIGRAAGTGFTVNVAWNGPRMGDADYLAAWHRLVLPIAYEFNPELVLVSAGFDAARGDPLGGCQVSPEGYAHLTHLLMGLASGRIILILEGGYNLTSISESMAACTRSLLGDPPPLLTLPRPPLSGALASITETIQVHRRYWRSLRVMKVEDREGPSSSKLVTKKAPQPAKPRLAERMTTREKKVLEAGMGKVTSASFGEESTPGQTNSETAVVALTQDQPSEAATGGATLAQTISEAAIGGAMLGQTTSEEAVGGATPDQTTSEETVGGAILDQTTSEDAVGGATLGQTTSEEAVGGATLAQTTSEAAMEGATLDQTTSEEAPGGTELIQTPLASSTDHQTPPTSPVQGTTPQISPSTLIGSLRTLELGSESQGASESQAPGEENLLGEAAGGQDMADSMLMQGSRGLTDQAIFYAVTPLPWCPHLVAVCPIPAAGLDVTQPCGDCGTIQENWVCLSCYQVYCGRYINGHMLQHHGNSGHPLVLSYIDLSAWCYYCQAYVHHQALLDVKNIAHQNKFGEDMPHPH", "experiment": "Inhibition of HDAC6 in human Cal27CisR cells assessed as acetylation of alpha-tubulin at 5 uM measured after 24 hrs by immunoblot analysis", "assay_type": "cell-based"}, "[5]": {"biological_target": "T1, Class 1 histone deacetylase", "experiment": "Inhibition of class 1 HDAC in human CAL27 cells assessed as potentiation of cisplatin-induced cytotoxicity by measuring combination index at 5 uM in presence of 10 uM cisplatin by MTT assay based Chou-Talalay analysis", "assay_type": "cell-based", "details": "CAL-27"}, "[6]": {"biological_target": "T1, Class 1 histone deacetylase", "experiment": "Inhibition of class 1 HDAC in human Cal27CisR cells assessed as potentiation of cisplatin-induced cytotoxicity by measuring combination index at 5 uM in presence of 32 uM cisplatin by MTT assay based Chou-Talalay analysis", "assay_type": "cell-based"}, "[7]": {"experiment": "Induction of apoptosis in human Cal27CisR cells assessed as accumulation at sub-G1 phase at 0.5 uM after 48 hrs by propidium iodide staining based flow cytometry relative to control", "assay_type": "functional"}, "CAL-27 [8]": {"test_system": "CAL-27", "experiment": "Induction of apoptosis in human CAL27 cells assessed as accumulation at sub-G1 phase at 0.5 uM after 48 hrs by propidium iodide staining based flow cytometry relative to control", "assay_type": "functional"}, "[9]": {"biological_target": "T1, Class 1 histone deacetylase", "details": "CAL-27", "description": "Inhibition of class 1 HDAC in human CAL27 cells assessed as potentiation of cisplatin-induced cytotoxicity by measuring combination index at 0.1 uM in presence of 3.2 uM cisplatin by MTT assay based Chou-Talalay analysis"}, "[10]": {"biological_target": "T1, Class 1 histone deacetylase", "description": "Inhibition of class 1 HDAC in human Cal27CisR cells assessed as potentiation of cisplatin-induced cytotoxicity by measuring combination index at 0.10 uM in presence of 10 uM cisplatin by MTT assay based Chou-Talalay analysis"}, "CAL-27 [11]": {"test_system": "CAL-27", "experiment": "Potency index, ratio of vorinostat IC50 to test compound IC50 for cytotoxicity against human CAL27 cells", "assay_type": "functional"}, "[12]": {"biological_target": "T1, Class 1 histone deacetylase", "assay_type": "cell-based", "details": "cal-27"}, "A2780": {"test_system": "A2780", "experiment": "Cytotoxicity against human A2780 cells assessed as reduction in cell survival up to 100 uM measured after 72 hrs by MTT assay", "assay_type": "functional, cell-based"}, "[13]": {"experiment": "Induction of apoptosis in human Cal27CisR cells assessed as accumulation at sub-G1 phase at […] after 48 hrs by propidium iodide staining based flow cytometry relative to control", "assay_type": "functional"}, "[14]": {"biological_target": "T1, Class 1 histone deacetylase", "experiment": "Inhibition of class 1 HDAC in human CAL27 cells assessed as potentiation of cisplatin-induced cytotoxicity by measuring cisplatin IC50 at […] preincubated for 48 hrs followed by cisplatin addition and measured after 72 hrs by MTT assay (reference value: 9.79 uM)", "assay_type": "cell-based", "details": "cal-27"}, "[15]": {"biological_target": "T1, Class 1 histone deacetylase", "experiment": "Inhibition of class 1 HDAC in human Cal27CisR cells assessed as increase in histone H3 acetylation at […] measured after 24 hrs by immunoblot analysis", "assay_type": "cell-based"}, "[16]": {"biological_target": "T1, Class 1 histone deacetylase", "experiment": "as §1, with “5 uM” left out, “hrs” for “hrs in presence of pan caspase inhibitor QVD”", "assay_type": "cell-based"}, "[17]": {"biological_target": "T1, Class 1 histone deacetylase", "experiment": "Inhibition of class 1 HDAC in human Cal27CisR cells assessed as potentiation of cisplatin-induced cytotoxicity by measuring cisplatin IC50 at […] preincubated for 48 hrs followed by cisplatin addition and measured after 72 hrs by MTT assay (reference value: 63.2 uM)", "assay_type": "cell-based"}, "[18]": {"biological_target": "T2, Protein deacetylase HDAC6 (Homo sapiens)", "experiment": "Inhibition of HDAC6 in human Cal27CisR cells assessed as acetylation of alpha-tubulin at […] measured after 24 hrs by immunoblot analysis", "assay_type": "cell-based"}},
  "note": "The source made the active and inactive calls. The rule behind the calls is not given here.",
  "data": [
    {"smiles": "Cc1cc(C)cc(C(=O)N(CCCCCC(=O)Nc2cc(-c3ccccc3)ccc2N)CC(=O)NCc2ccccc2)c1", "values": [
      {"measurement": "Activity", "setting": "Homo sapiens", "value": "inactive"},
      {"measurement": "Ratio IC50", "setting": "[1]", "value": 5.26},
      {"measurement": "CI", "setting": "[2]", "value": "< 0.2"},
      {"measurement": "inhibition", "setting": "[3]", "value": "inactive"},
      {"measurement": "inhibition", "setting": "[4]", "value": "inactive"},
      {"measurement": "CI", "setting": "[5]", "value": 0.09},
      {"measurement": "CI", "setting": "[6]", "value": 0.1}
    ]},
    {"smiles": "CN(C)c1ccc(C(=O)N(CC(=O)NCc2ccccc2)Cc2ccc(C(=O)Nc3ccccc3N)cc2)cc1", "values": [
      {"measurement": "Activity", "setting": "[7]", "value": 6.15, "unit": "%"},
      {"measurement": "Activity", "setting": "CAL-27 [8]", "value": 9.42, "unit": "%"},
      {"measurement": "CI", "setting": "[9]", "value": 0.37},
      {"measurement": "CI", "setting": "[10]", "value": "< 0.2"},
      {"measurement": "Ratio IC50", "setting": "CAL-27 [11]", "value": 1.7},
      {"measurement": "IC50", "setting": "[12]", "value": 1.26, "unit": "µM"}
    ]},
    {"smiles": "Cc1cc(C)cc(C(=O)N(CC(=O)NCc2ccccc2)Cc2ccc(C(=O)Nc3cc(-c4ccccc4)ccc3N)cc2)c1", "values": [
      {"measurement": "Activity", "setting": "A2780", "value": "inactive"},
      {"measurement": "Activity", "setting": "[13]", "value": 7.45, "unit": "%"},
      {"measurement": "IC50", "setting": "[14]", "value": 1.86, "unit": "µM"},
      {"measurement": "inhibition", "setting": "[15]", "value": "Active"},
      {"measurement": "inhibition", "setting": "[16]", "value": "Active"},
      {"measurement": "IC50", "setting": "[17]", "value": 12, "unit": "µM"},
      {"measurement": "inhibition", "setting": "[18]", "value": "inactive"}
    ]}
  ]
}
